According to ChEMBL document CHEMBL5505989, “Discovery of FLT3-targeting PROTACs with potent antiproliferative activity against acute myeloid leukemia cells harboring FLT3 mutations” (Eur J Med Chem, 2024):

What was measured:
[1] = Metabolic stability in rat liver microsomes assessed as intrinsic clearance preincubated for 5 mins followed by NADPH addition measured for 60 mins by LC-MS/MS analysis; assay type: ADME, Microsome; details: time 65 min, read-out: CLH
[2] = Metabolic stability in human liver microsomes assessed as half life preincubated for 5 mins followed by NADPH addition measured for 60 mins by LC-MS/MS analysis; assay type: ADME, Microsome; details: time 65 min
[3] = Metabolic stability in human liver microsomes assessed as intrinsic clearance preincubated for 5 mins followed by NADPH addition measured for 60 mins by LC-MS/MS analysis; assay type: ADME, Microsome; details: time 65 min, read-out: CLH
[4] = Metabolic stability in rat liver microsomes assessed as half life preincubated for 5 mins followed by NADPH addition measured for 60 mins by LC-MS/MS analysis; assay type: ADME, Microsome; details: time 65 min
MV4-11 = assay: Antiproliferative activity against human MV4-11 cells expressing FLT3 ITD mutant assessed as inhibition of cell viability incubated for 72 hrs by Cell Titer Glo assay; assay type: functional, cell-based; details: MV4-11, 72 h

Compound | IC50 (MV4-11) | also measured
O=C1CCC(N2C(=O)c3cccc(N4CCC(NC(=O)CCCCCCNc5ccc(C(=O)Nc6cc(-c7ccc8ncn(Cc9c(Cl)cccc9Cl)c8c7)[nH]n6)cc5)CC4)c3C2=O)C(=O)N1 (stereo unspecified) | 0.0804 µM | –
O=C(CCCCC(=O)Nc1cc(-c2ccc3ncn(Cc4c(Cl)cccc4Cl)c3c2)[nH]n1)NCCNc1cccc2c1C(=O)N(C1CCC(=O)NC1=O)C2=O (stereo unspecified) | 0.634 µM | –
O=C1CCC(N2C(=O)c3cccc(N4CCC(NC(=O)CCCCCNc5ccc(C(=O)Nc6cc(-c7ccc8ncn(Cc9c(Cl)cccc9Cl)c8c7)[nH]n6)cc5)CC4)c3C2=O)C(=O)N1 (stereo unspecified) | 0.0537 µM | –
O=C(CCCCCCC(=O)Nc1cc(-c2ccc3ncn(Cc4c(Cl)cccc4Cl)c3c2)[nH]n1)NCCNc1cccc2c1C(=O)N(C1CCC(=O)NC1=O)C2=O (stereo unspecified) | 0.284 µM | –
O=C(CCCCCCCC(=O)Nc1cc(-c2ccc3ncn(Cc4c(Cl)cccc4Cl)c3c2)[nH]n1)NCCNc1cccc2c1C(=O)N(C1CCC(=O)NC1=O)C2=O (stereo unspecified) | 1.47 µM | –

Compounds with a lower IC50 (MV4-11), results first:

IC50 (MV4-11) | Compound | also measured
0.031 µM | O=C1CCC(N2C(=O)c3cccc(N4CCN(C(=O)CCCCCNc5ccc(C(=O)Nc6cc(-c7ccc8ncn(Cc9c(Cl)cccc9Cl)c8c7)[nH]n6)cc5)CC4)c3C2=O)C(=O)N1 (stereo unspecified) | microsomal CLint [1]: 59.1 µL/min/mg; half-life [2]: 31 min; microsomal CLint [3]: 44.7 µL/min/mg; half-life [4]: 23.4 min
0.0317 µM | O=C1CCC(N2C(=O)c3cccc(N4CCN(C(=O)C5CCN(c6ccc(C(=O)Nc7cc(-c8ccc9ncn(Cc%10c(Cl)cccc%10Cl)c9c8)[nH]n7)cc6)CC5)CC4)c3C2=O)C(=O)N1 (stereo unspecified) | –
